Literature values in US20160280572A1, “POLYMERS FOR FLOCCULATION, DEWATERING AND CONSOLIDATION OF OIL SANDS FLUID FINE TAILINGS, MINE TAILINGS AND SOLID PARTICULATE SUSPENSIONS” (THE GOVERNORS OF THE UNIVERSITY OF ALBERTA, priority 2015, published 2016).
≈ marks a conversion by molar mass, not a printed value.

Conditions: in water, 20 Celsius

SMILES | Solubility
C=CC#N [Acrylonitrile] | 70 mg/mL (≈ 1320 mM)
C=C(C)C(N)=O [Methacrylamide] | 202 mg/mL (≈ 2370 mM)
C=CC(=O)OC [methyl acrylate] | 60 mg/mL (≈ 697 mM)
C=C(C)C(=O)OC [methyl methacrylate] | 16 mg/mL (≈ 160 mM)
C=Cc1ccccc1 [styrene] | 0.3 mg/mL (≈ 2.88 mM)
C=COC(C)=O [vinyl acetate] | 25 mg/mL

Same assay, conditions: in water, temperature Not Listed

SMILES | Solubility
C=C(C)C(=O)OCCCC [butyl methacrylate] | 6 mg/mL (≈ 42.2 mM)
